In PubChem BioAssay AID1963825 (Molecular Pharmacology Branch, DTP, NCI, 2024):

Assay: Anticancer human tumor 997537-175-T-J1-PDC patient-derived colon adenocarcinoma cell line growth inhibition [POLQ]
Settings: 997537-175-T-J1-PDC complex spheroid viability, combination with POLQ inhibitors; for IC50: curve of first compound; for viability, T/C: stronger effect = lower value
How it was run: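 PDC + HUVEC + MSC complex spheroids; POLQ inhibitors ± partner drugs; top conc. at/near clinical Cmax, else 10 microM (SN-38 1 microM), half-log dilutions; 37 degrees C, 5% CO2.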

[1] = second compound 0.0316 µM, first compound 0.0316 µM
[2] = second compound 0.0316 µM, first compound 0.1 µM
[3] = second compound 0.0316 µM, first compound 0.316 µM
[4] = second compound 0.0316 µM, first compound 1 µM
[5] = second compound 0.1 µM, first compound 0.0316 µM
[6] = second compound 0.1 µM, first compound 0.1 µM
[7] = second compound 0.1 µM, first compound 0.316 µM
[8] = second compound 0.1 µM, first compound 1 µM
[9] = second compound 0.316 µM, first compound 0.0316 µM
[10] = second compound 0.316 µM, first compound 0.1 µM
[11] = second compound 0.316 µM, first compound 0.316 µM
[12] = second compound 0.316 µM, first compound 1 µM
[13] = second compound 1 µM, first compound 0.0316 µM
[14] = second compound 1 µM, first compound 0.1 µM
[15] = second compound 1 µM, first compound 0.316 µM
[16] = second compound 1 µM, first compound 1 µM
[17] = second compound 3.16 µM, first compound 0.0316 µM
[18] = second compound 3.16 µM, first compound 0.1 µM
[19] = second compound 3.16 µM, first compound 0.316 µM
[20] = second compound 3.16 µM, first compound 1 µM
[21] = second compound 10 µM, first compound 0.0316 µM
[22] = second compound 10 µM, first compound 0.1 µM
[23] = second compound 10 µM, first compound 0.316 µM
[24] = second compound 10 µM, first compound 1 µM
[25] = second compound 0.0316 µM, first compound 0.00316 µM
[26] = second compound 0.0316 µM, first compound 0.01 µM
[27] = second compound 0.1 µM, first compound 0.00316 µM
[28] = second compound 0.1 µM, first compound 0.01 µM
[29] = second compound 0.316 µM, first compound 0.00316 µM
[30] = second compound 0.316 µM, first compound 0.01 µM
[31] = second compound 1 µM, first compound 0.00316 µM
[32] = second compound 1 µM, first compound 0.01 µM
[33] = second compound 3.16 µM, first compound 0.00316 µM
[34] = second compound 3.16 µM, first compound 0.01 µM
[35] = second compound 10 µM, first compound 0.00316 µM
[36] = second compound 10 µM, first compound 0.01 µM
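Further: luminescence signal used as a surrogate for viable cells; spheroids exposed to drugs for seven days before readout.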

## CC1COCCN1c1cc(-c2ccnn2C)c2ccnc(-c3ccn[nH]3)c2n1 (stereo unspecified) + Cc1cccc(N(C)C(=O)C2C(O)CCN2c2nc(C)cc(C(F)(F)F)c2C#N)c1
Second compound 0.0316 µM
  IC50: > 10000 nM
Second compound 0.1 µM
  IC50: > 10000 nM
Second compound 0.316 µM
  IC50: 1480 nM
Second compound 1 µM
  IC50: > 10000 nM
Second compound 3.16 µM
  IC50: 761 nM
Second compound 10 µM
  IC50: > 10000 nM
[1]
  viability, T/C: 88.5%
[2]
  viability, T/C: 86.1%
[3]
  viability, T/C: 71.5%
[4]
  viability, T/C: 43.5%
Second compound 0.0316 µM, first compound 3.16 µM
  viability, T/C: 45.5%
Second compound 0.0316 µM, first compound 10 µM
  viability, T/C: 63.2%
[5]
  viability, T/C: 87.9%
[6]
  viability, T/C: 87%
[7]
  viability, T/C: 73.4%
[8]
  viability, T/C: 53.4%
Second compound 0.1 µM, first compound 3.16 µM
  viability, T/C: 53.2%
Second compound 0.1 µM, first compound 10 µM
  viability, T/C: 54.7%
[9]
  viability, T/C: 94.2%
[10]
  viability, T/C: 93.5%
[11]
  viability, T/C: 74%
[12]
  viability, T/C: 50.5%
Second compound 0.316 µM, first compound 3.16 µM
  viability, T/C: 52.4%
Second compound 0.316 µM, first compound 10 µM
  viability, T/C: 45.3%
[13]
  viability, T/C: 96.6%
[14]
  viability, T/C: 84.9%
[15]
  viability, T/C: 48.8%
[16]
  viability, T/C: 47.1%
Second compound 1 µM, first compound 3.16 µM
  viability, T/C: 61.4%
Second compound 1 µM, first compound 10 µM
  viability, T/C: 65.2%
[17]
  viability, T/C: 107%
[18]
  viability, T/C: 80.8%
[19]
  viability, T/C: 53.7%
[20]
  viability, T/C: 30.5%
Second compound 3.16 µM, first compound 3.16 µM
  viability, T/C: 67.1%
Second compound 3.16 µM, first compound 10 µM
  viability, T/C: 48.6%
[21]
  viability, T/C: 72.1%
[22]
  viability, T/C: 80.7%
[23]
  viability, T/C: 54.8%
[24]
  viability, T/C: 42%
Second compound 10 µM, first compound 3.16 µM
  viability, T/C: 68.9%
Second compound 10 µM, first compound 10 µM
  viability, T/C: 50.1%

## C=CCn1c(=O)c2cnc(Nc3ccc(N4CCN(C)CC4)cc3)nc2n1-c1cccc(C(C)(C)O)n1 + COC1C(OC(N)=O)C(O)C(Oc2ccc3c(O)c(NC(=O)c4ccc(O)c(CC=C(C)C)c4)c(=O)oc3c2C)OC1(C)C
Second compound 0.0316 µM
  IC50: > 1000 nM
Second compound 0.1 µM
  IC50: > 1000 nM
Second compound 0.316 µM
  IC50: > 1000 nM
Second compound 1 µM
  IC50: > 1000 nM
Second compound 3.16 µM
  IC50: > 1000 nM
Second compound 10 µM
  IC50: > 1000 nM
[25]
  viability, T/C: 92.8%
[26]
  viability, T/C: 102%
[1]
  viability, T/C: 105%
[2]
  viability, T/C: 92.1%
[3]
  viability, T/C: 105%
[4]
  viability, T/C: 71%
[27]
  viability, T/C: 115%
[28]
  viability, T/C: 106%
[5]
  viability, T/C: 91.9%
[6]
  viability, T/C: 92.2%
[7]
  viability, T/C: 81.7%
[8]
  viability, T/C: 66.2%
[29]
  viability, T/C: 88.5%
[30]
  viability, T/C: 101%
[9]
  viability, T/C: 103%
[10]
  viability, T/C: 103%
[11]
  viability, T/C: 92.5%
[12]
  viability, T/C: 56.5%
[31]
  viability, T/C: 103%
[32]
  viability, T/C: 98.6%
[13]
  viability, T/C: 98.2%
[14]
  viability, T/C: 90.3%
[15]
  viability, T/C: 102%
[16]
  viability, T/C: 87.8%
[33]
  viability, T/C: 115%
[34]
  viability, T/C: 93.9%
[17]
  viability, T/C: 96.6%
[18]
  viability, T/C: 99.1%
[19]
  viability, T/C: 90.2%
[20]
  viability, T/C: 64.1%
[35]
  viability, T/C: 98%
[36]
  viability, T/C: 82.5%
[21]
  viability, T/C: 93.3%
[22]
  viability, T/C: 81.4%
[23]
  viability, T/C: 78.5%
[24]
  viability, T/C: 56.4%

## CCc1c2c(nc3ccc(O)cc13)-c1cc3c(c(=O)n1C2)COC(=O)[C@]3(O)CC + Cc1cccc(N(C)C(=O)C2C(O)CCN2c2nc(C)cc(C(F)(F)F)c2C#N)c1
Second compound 0.0316 µM
  IC50: 19.7 nM
Second compound 0.1 µM
  IC50: 18.1 nM
Second compound 0.316 µM
  IC50: 21.7 nM
Second compound 1 µM
  IC50: 15.3 nM
Second compound 3.16 µM
  IC50: 17.3 nM
Second compound 10 µM
  IC50: 18.9 nM
[25]
  viability, T/C: 81.5%
[26]
  viability, T/C: 68.8%
[1]
  viability, T/C: 36.7%
[2]
  viability, T/C: 13.7%
[3]
  viability, T/C: 5.85%
[4]
  viability, T/C: 4.36%
[27]
  viability, T/C: 86.2%
[28]
  viability, T/C: 70.1%
[5]
  viability, T/C: 30.7%
[6]
  viability, T/C: 11.7%
[7]
  viability, T/C: 6.03%
[8]
  viability, T/C: 4.13%
[29]
  viability, T/C: 82.7%
[30]
  viability, T/C: 77.2%
[9]
  viability, T/C: 35.8%
[10]
  viability, T/C: 15.8%
[11]
  viability, T/C: 5.26%
[12]
  viability, T/C: 5.26%
[31]
  viability, T/C: 79.8%
[32]
  viability, T/C: 59.5%
[13]
  viability, T/C: 33.5%
[14]
  viability, T/C: 14.4%
[15]
  viability, T/C: 5.49%
[16]
  viability, T/C: 5.83%
[33]
  viability, T/C: 91.5%
[34]
  viability, T/C: 65.3%
[17]
  viability, T/C: 33%
[18]
  viability, T/C: 14.8%
[19]
  viability, T/C: 6.21%
[20]
  viability, T/C: 5.14%
[35]
  viability, T/C: 81.4%
[36]
  viability, T/C: 63%
[21]
  viability, T/C: 39.5%
[22]
  viability, T/C: 18.7%
[23]
  viability, T/C: 5.71%
[24]
  viability, T/C: 7.45%
